The numbers were not newly measured in article PMC4533831 (Molecular pharmaceutics, 2015), which cites them from elsewhere.

In this data set the test system is IGF2R. The note with it: read-out: relative binding affinity IC50; affinity to IGF2R.

In the case of `O=C[C@@H](O)[C@@H](O)[C@H](O)[C@H](O)COP(=O)(O)O` [M6P, mannose-6-phosphate], the concentration for half-maximal inhibition (IC50) is 23 µM.
